Residues, ends and D or L forms follow the SMILES beside them. *: point of attachment. Cbz = O=C(OCc1ccccc1)*
Assays:
ICAM-1 = ICAM-1 surface expression by FACS analysis in HAEC; format: cell-based, human; conditions: for BMP4-induced ICAM-1 expression in presence of ROS scavenger: HAEC transfected with BMP4; for effect on OS-induced ICAM-1 expression: HAEC exposed to OS 1 day, PEG-catalase or Tiron included during shear
Procedure: (§1) Endothelial cells: Mouse aortic endothelial cells (MAEC) were cultured and used at passages 4-8 as described (Cai, H., et al. (2002) J Bio Chem 107, 48311-48317). Human aortic endothelial cells (HAEC) purchased from Clonetics were cultured using EGM-2 bullet kit (Clonetics) and used at passages 4-8. Alternatively, endothelial cells obtained from the thoracic aortas of C57/BL6 control (MAE-wt) and p47^phox-null mice (MAE-p47^−/−) were isolated and cultured as described previously (Hwang, J. et al. (2003) J Biol Chem 278:47291-8), and used between passages 4-10.
(§2) Shear stress studies: Confluent endothelial monolayers grown in 100 mm tissue culture dishes were exposed to an arterial level of uni-directional LS (15 dyn/cm^2) in the growth medium by rotating a Teflon cone (0.5° cone angle) as described previously. To mimic unstable shear conditions in vivo, endothelial cells were exposed to OS with directional changes of flow at 1 Hz cycle (±5 dyn/cm^2) by rotating the cone back-and-forth using a stepping motor (Servo Motor) and a computer program (DC Motor Company, Atlanta, Ga.). In some studies, 5 dyn/cm^2 unidirectional LS was used for comparison to OS (±5 dyn/cm^2).
(§3) Fluorescence activated cytometry sorting (FACS) analysis: Treated cells were dissociated into single cell suspensions using 0.25% trypsin-EDTA and resuspended in a FACS buffer (Hank's buffered solution containing 5% FBS). Aliquots of cell suspensions were incubated with ICAM-1 antibody (R&D Systems) for 20 min on ice, washed twice with FACS buffer, and incubated with secondary antibody (fluorescein-5-isothiocyanate- or phycoerytherin-conjugated, Chemicon) for 20 min on ice in the dark. Then samples were washed again, fixed in 1% paraformaldehyde and analyzed by FACS (Calibur, Becton-Dickinson) using CellQuest software. The fluorescence intensity of ICAM-1 and forward cell scattering of 30,000 cells were measured and the geometric means calculated from histograms were shown. In some studies, HAEC were transfected with either BMP4 cloned in a bi-cistronic pAdTrack CMV vector or an empty vector, both expressing green fluorescent protein (GFP), using Lipofectamine 2000. In these experiments, ICAM-1 expression was measured in the red phycoerytherin channel, while the green channel was used to monitor the […] expression-GFP expression was determined by FACS analysis and fluorescence microscopy (20-30% transfection efficiency). Because expression of GFP was similar among different treatment groups within the same experiment, it was unnecessary to normalize ICAM-1 expression data to GFP level. Human recombinant noggin was purchased from R&D Systems and used in all experiments at 50 ng/ml (Dale, L., and Jones, C. M. (1999) Bioessays 21, 751-760; Zimmerman, L. B., et al. (1996) Cell 86, 599-606; Brunei, L. J., et al. (1998) Science 280, 1455-1457).

MAEC = assay: Monocyte adhesion: THP-1 monocytes bound to mouse aortic endothelial cells; format: cell-based; conditions: for effect on BMP4-induced monocyte adhesion: MAE-wt, BMP4 20 ng/ml 18 hrs, YN1 5 μg/ml last 30 min, PEG-catalase 100 U/ml 18 hrs or Tiron 10 μmol/L 1 hr pre-incubation
Procedure: as §1, §2
(§4) Monocyte Adhesion: Monocyte binding was determined under no-flow conditions using THP-1 monocytes (ATCC) by the method described by Chappel et al (Chappell, D. C., et al. (1998) Circ Res 82, 532-539). Briefly, THP-1 cells (5×10^5 cells/ml) were labeled with a fluorescent dye 2′,7′-bis(carboxyethyl)-5(6)-carboxyfluorescein-AM (BCECF, Molecular Probes) (1 mg/ml) in serum-free RPMI medium for 45 min at 37° C. Following exposure to shear stress or BMP treatments in the presence or absence of noggin or vehicle, the endothelial cells were washed in RPMI medium before adding BCECF-loaded THP-1 cells (1:1 ratio). After a 30 min incubation at 37° C. under no-flow conditions, unbound monocytes were removed by washing the endothelial dishes 5 times with Hank's PBS. Bound monocytes were quantified by either counting the cells under a fluorescent microscope or by measuring the fluorescent intensity of cell lysates by fluorescence spectrophotometry using a plate reader. […] Some studies were performed with MAEC pretreated with 5 μg/ml of mouse-ICAM1 antibody (YN1, Southern Biolechonology) (Kevil, C. G., et al. (2001) Am J Physiol Cell Physiol 281, C1442-1447).
In FIG. 7B, confluent MAE-wt cells were pre-incubated with cell-permeable PEG-catalase (Catalase, 100 U/ml for 18 hrs) or Tiron (10 μmol/L for 1 hr). Cells were then incubated with 20 ng/ml BMP4 or vehicle for additional 18 hrs. The treated cells in 7A and 7B were washed, and fluorescently-labeled THP-1 monocytes were added. Unbound THP-1 cells were washed after 30 min, and bound monocytes were counted with a fluorescence microscope using a 10× objective (5-10 different fields per dish). […] As a positive control, monocyte binding was determined using MAE-wt treated with TNF-α(100 U/ml for 2hrs).

VCAM-1 = VCAM-1 expression in endothelial cells; format: cell-based, human; conditions: HAEC, FACS; TNF-α 100 U/ml for 2 hr as positive control
Procedure: as §3
(§5) HAEC treated with OS, BMP4 or static condition were analyzed by FACS using antibodies specific to VCAM-1 (C) and E-selectin (D) as described in panel A using TNFa (1OOU/ml, for 2 hr) as a positive control.

E-selectin = E-selectin surface expression by FACS analysis in HAEC; format: cell-based, human; conditions: TNF-α 100 U/ml for 2 hr as positive control
Procedure: Fluorescence activated cytometry sorting (FACS) analysis: Treated cells were dissociated into single cell suspensions using 0.25% trypsin-EDTA and resuspended in a FACS buffer (Hank's buffered solution containing 5% FBS). Aliquots of cell suspensions were incubated with ICAM-1 antibody (R&D Systems) for 20 min on ice, washed twice with FACS buffer, and incubated with secondary antibody (fluorescein-5-isothiocyanate- or phycoerytherin-conjugated, Chemicon) for 20 min on ice in the dark. Then samples were washed again, fixed in 1% paraformaldehyde and analyzed by FACS (Calibur, Becton-Dickinson) using CellQuest software. The fluorescence intensity of ICAM-1 and forward cell scattering of 30,000 cells were measured and the geometric means calculated from histograms were shown. […] In these experiments, ICAM-1 expression was measured in the red phycoerytherin channel, while the green channel was used to monitor the […] expression-GFP expression was determined by FACS analysis and fluorescence microscopy (20-30% transfection efficiency). […]
as §5

MAE-p47−/− cells = assay: Monocyte adhesion to p47phox-null endothelial cells, with or without p47phox transfection; format: cell-based, mouse; conditions: MAE-p47−/− cells transfected with p47phox (rescued); BMP4 20 ng/ml or TNF-α 100 U/ml, 18 hrs
Procedure: as §1, §4
Transfection of p47phox: In some studies MAE-p47^−/− cells were trasnfected withp47phox expression vector or an empty vector as described (Hwang, J. et al. (2003) J Biol Chem278-47291-8).
Next, monocyte adhesion was determined in these cells. […] After 18 hrs, cells were washed and monocyte binding was determined as described in FIG. 7. […]

MAE-wt cells [1] = assay: H2O2 assay by oxidation of DCF-DA; format: cell-based, mouse; conditions: PEG-catalase 100 U/ml for 1 day before and during BMP4 treatment
Procedure: H2O2 assay: Cells grown in 6-well plates were treated with BMP4 or vehicle control for 18 hrs in the presence or absence of cell-permeable polyethylene glycol (PEG)-catalase (100 U/ml). Cells were then washed once with Hepes buffered saline solution (HBSS) followed by incubation with 7.5 μg/ml 2′, 7′-dichlorofluorescein diacetate (DCF-DA, Molecular Probes) in HBSS for 1 hr at 37 C° in the dark. Cells were washed with HBSS, incubated further for an additional 40 min in HBSS, and the DCF fluorescence intensities were measured in a Cytofluor Multi-Well plate reader (excitation at 475 nm and emission at 525 nm).
In addition, BMP4 stimulated production of H2O2 by 70% above control as determined by oxidation of DCF-DA (FIG. 10B). […] The cells were washed, incubated with DCF-DA, and the fluorescent intensities determined by fluorometry. Shown is a mean±SEM (n=3, p<0.05). In this assay, a redox cycling menadione (10 μM) was used as positive control (data not shown).

MAE-wt cells [2] = assay: O2− assay by electron spin resonance spectroscopy with CMH spin probe; format: cell-based, mouse; conditions: MAE-wt exposed to OS for 1 day, noggin during OS exposure
Procedure: O2^− Assay: O2^− production was determined by electron spin resonance spectroscopy using methoxycarbonyl-2,2,5,5-tetramethyl-pyrrolidine (CMH) as a spin probe in the presence or absence of PEG-superoxide dismutase (PEG-SOD; 50 U/ml) to quantify the SOD-inhibitable portions of CM.
In FIG. 10A immediately following treatment of MAE wt cells with BMP4 (200 ng/ml) for 18 hrs, cells were trypsinized and reconstituted in Krebs-Hepes buffer. Equal number of cells was incubated with a spin trap CMH in the presence or absence of PEG-SOD (50 U/mL). The specific O2^− production was calculated by subtracting SOD-inhibitable portions from total O2^− production as determined by following CM production (mean±SEM, n=3, *p<0.05).

CC(C)C[C@@H](C=O)NC(=O)[C@H](CC(C)C)NC(=O)[C@H](CC(C)C)NC(=O)OCc1ccccc1 [MG132, reference compound] (Cbz-Leu-Leu-Leu-aldehyde)
effect on ICAM-1 expression induced by BMP4 (ICAM-1; HAEC, in the presence of NF-κB translocation inhibitor, inactive peptide or proteosome inhibitor): completely prevented

CC(=O)N[C@@H](CS)C(=O)O [N-Acetyl-cysteine, reference compound]
BMP4-induced ICAM-1 expression in presence of ROS scavenger (ICAM-1): 23 % of control

O=S(=O)(O)c1cc(O)c(O)c(S(=O)(=O)O)c1 [Tiron, reference compound]
effect on BMP4-induced monocyte adhesion (MAEC): completely blocked
effect on OS-induced ICAM-1 expression (ICAM-1; noggin 50 ng/ml): completely prevented

TNF-α [reference compound]
effect on surface expression of VCAM-1 (VCAM-1): strongly increased
effect on surface expression of E-selectin (E-selectin): strongly increased
increase in monocyte adhesion above the control (MAE-p47−/− cells): approximately 4 fold
ICAM-1 expression above control cells (ICAM-1; HAEC, TNF-α 100 U/ml for 2 hr): 4 to 5 fold

B1: PEG-catalase: cell-permeable polyethylene glycol-catalase converting H2O2 to H2O, 100 U/ml (protein, UniProt P00432 2-527, looked up)
Catalase: ADNRDPASDQMKHWKEQRAAQKPDVLTTGGGNPVGDKLNSLTVGPRGPLLVQDVVFTDEMAHFDRERIPERVVHAKGAGAFGYFEVTHDITRYSKAKVFEHIGKRTPIAVRFSTVAGESGSADTVRDPRGFAVKFYTEDGNWDLVGNNTPIFFIRDALLFPSFIHSQKRNPQTHLKDPDMVWDFWSLRPESLHQVSFLFSDRGIPDGHRHMNGYGSHTFKLVNANGEAVYCKFHYKTDQGIKNLSVEDAARLAHEDPDYGLRDLFNAIATGNYPSWTLYIQVMTFSEAEIFPFNPFDLTKVWPHGDYPLIPVGKLVLNRNPVNYFAEVEQLAFDPSNMPPGIEPSPDKMLQGRLFAYPDTHRHRLGPNYLQIPVNCPYRARVANYQRDGPMCMMDNQGGAPNYYPNSFSAPEHQPSALEHRTHFSGDVQRFNSANDDNVTQVRTFYLKVLNEEQRKRLCENIAGHLKDAQLFIQKKAVKNFSDVHPEYGSRIQALLDKYNEEKPKNAVHTYVQHGSHLSAREKANL
modifications: PEG conjugated
notes: cell-permeable polyethylene glycol-catalase converting H2O2 to H2O, 100 U/ml
effect on BMP4-induced monocyte adhesion (MAEC): completely blocked
effect on BMP-dependent H2O2 production (MAE-wt cells [1]): completely blocked
effect on OS-induced ICAM-1 expression (ICAM-1; noggin 50 ng/ml): completely prevented
BMP4-induced ICAM-1 expression in presence of ROS scavenger (ICAM-1): 26 % of control

B2: noggin (protein, UniProt Q13253 28-232, looked up)
Noggin: QHYLHIRPAPSDNLPLVDLIEHPDPIFDPKEKDLNETLLRSLLGGHYDPGFMATSPPEDRPGGGGGAAGGAEDLAELDQLLRQRPSGAMPSEIKGLEFSEGLAQGKKQRLSKKLRRKLQMWLWSQTFCPVLYAWNDLGSRFWPRYVKVGSCFSKRSCSVPEGMVCKPSKSVHLTVLRWRCQRRGGQRCGWIPIQYPIISECKCSC
notes: natural BMP antagonist
effect on OS-induced monocyte adhesion (MAEC; MAEC, OS 24 hr, noggin 50 ng/ml): inhibited OS-induced monocyte adhesion
effect on OS-induced O2− increase (MAE-wt cells [2]): virtually blocked
effect on OS-induced ICAM-1 expression (ICAM-1; noggin 50 ng/ml): completely inhibited
effect on TNF-α-induced ICAM-1 expression (ICAM-1; HAEC, TNF-α 100 U/ml for 6 hr, noggin 50 ng/ml): did not affect

Source: patent US20060276385A1, “Anti-inflammatory agents and methods of their use” (priority 2003, published 2006)
